How the values were obtained:
Format in all cases: cell-based, mouse
[1] = system: primary epidermal keratinocytes; assay: Radiolabeled phosphatidylglycerol formation in intact keratinocytes
Method: Primary epidermal keratinocytes were prepared from 1-3-day old neonatal ICR mice after trypsin flotation of the skin and mechanical separation of the epidermis from the dermis. The epidermal cells were released by scraping, collected by centrifugation and plated in 6-well dishes in a medium consisting of MEM containing 25 μM calcium, 2% dialyzed fetal bovine serum, 2 mM glutamine, 5 ng/mL EGF, ITS (6.25 μg/mL insulin+6.25 μg/mL transferrin+6.25 ng/mL selenious acid+5.35 μg/mL linoleic acid+1.25% bovine serum albumin), 100 U/mL penicillin, 100 μg/mL streptomycin and 0.25 μg/mL fungizone. After an overnight incubation, the cells were refed with serum-free keratinocyte medium (SFKM), in which 2% dialyzed fetal bovine serum was replaced with 90 μg/mL bovine pituitary extract. Cells were refed with fresh medium every 1-3 days.
For the PLD assay cultured primary keratinocytes were labeled for 20-24 hours with 2.5 μCi/ml [^3H] oleic acid. The cells were then exposed to vehicle or 100 nM PMA in the presence of 0.5% ethanol for 30 minutes. To measure the formation of radiolabeled phosphatidylglycerol, cells were treated for 24 hours with SFKM containing vehicle, 250 nM 1,25-dihydroxyvitamin D3 or 125 μM calcium and then labeled for an additional 30 minutes with 1-2.5 μCi/mL [^3H] or 0.4-0.5 μCi/mL [^14C]glycerol. For experiments investigating the extracellular calcium dependence of PG formation, cells were incubated for 24 hours in SFKM containing various calcium concentrations prior to the addition of 5 μCi/mL [^3H]glycerol for 30 minutes. In some cases, cells were stimulated with 25 μM calcium (control)—or 125 μM calcium-containing SFKM for 24 hours prior to the addition of [^14C]glycerol in the presence and absence of 1% ethanol. To measure phosphatidylglycerol formation in response to PMA, unlabeled cells were stimulated with 100 nM PMA in the presence of radiolabeled glycerol, as above. Reactions were terminated and the radiolabeled phosphatidylalcohol extracted, separated by thin-layer chromatography and quantified as described by Bollag (1998), referenced above.

keratin 5 promoter = assay: Co-transfection analysis, keratin 5 promoter-luciferase reporter; details: 1 mM calcium, 24 hours
Method: FIGS. 15A-B illustrate that glycerol, but not xylitol or sorbitol, inhibits DNA synthesis and enhances the inhibitory effect of an elevated extracellular Ca^2+ concentration. (A) Near-confluent keratinocytes were incubated for 24 hours with 0.02 or 0.1% glycerol and DNA synthesis measured as the incorporation of [^3H] thymidine incorporation into DNA. (B) Near-confluent keratinocytes were incubated for 24 hours with the indicated concentrations of glycerol (G, squares) or equivalent concentrations of xylitol (X, circles) in SFKM containing 25 μM (control; open symbols) or 125 μM Ca^2+ (Ca^2+; closed symbols). (C) Near-confluent keratinocytes were incubated for 24 hours with the indicated concentrations of glycerol (G) or equivalent concentrations of sorbitol (S, triangles) in SFKM containing 25 μM (control; open symbols) or 125 μM Ca^2+ (Ca^2+; closed symbols) for 24 hours. [^3H]Thymidine incorporation into DNA was then determined. Values represent the means±SEM of 4 to 5 separate experiments performed in duplicate; *p<0.05, **p<0.01 versus the control value, †p<0.05 versus the value in the presence of Ca^2+ alone. […] After 24 hours cells were refed with medium containing no addition (control) or 0.2% glycerol for an additional 24 hours. Luciferase activity was then measured using a Dual Luciferase kit as directed by the manufacturer. […] The blots were quantified using the Kodak molecular imaging software. […]
The keratin 5 and keratin 10 promoter-luciferase constructs were provided by of Dr. Bogi Andersen (University of California, Irvine, Calif.); the involucrin promoter-luciferase construct was provided by Dr. Daniel Bikle (University of California, San Francisco, Calif.). […] Luciferase activity was then measured using the Dual Luciferase Reporter Assay kit (Promega, Madison, Wis.) as directed by the manufacturer.

keratin 10 promoter = assay: Co-transfection analysis, keratin 10 promoter-luciferase reporter; details: 1 mM calcium, 24 hours
Method: The keratin 5 and keratin 10 promoter-luciferase constructs were provided by of Dr. Bogi Andersen (University of California, Irvine, Calif.); the involucrin promoter-luciferase construct was provided by Dr. Daniel Bikle (University of California, San Francisco, Calif.). Sub-confluent (approximately 30%) keratinocytes were transfected using TransIT-Keratinocyte according to the manufacturer's instructions. After 24 hours cells were refed with medium containing 25 μM (control) or 1 mM-Ca^2+ for an additional 24 hours. Luciferase activity was then measured using the Dual Luciferase Reporter Assay kit (Promega, Madison, Wis.) as directed by the manufacturer.

involucrin = assay: Involucrin protein levels by western analysis; details: 24 hours; PG liposomes in 25 uM Ca2+ medium, or 125 uM Ca2+ alone; normalized to actin
Method: FIGS. 15A-B illustrate that glycerol, but not xylitol or sorbitol, inhibits DNA synthesis and enhances the inhibitory effect of an elevated extracellular Ca^2+ concentration. (A) Near-confluent keratinocytes were incubated for 24 hours with 0.02 or 0.1% glycerol and DNA synthesis measured as the incorporation of [^3H] thymidine incorporation into DNA. (B) Near-confluent keratinocytes were incubated for 24 hours with the indicated concentrations of glycerol (G, squares) or equivalent concentrations of xylitol (X, circles) in SFKM containing 25 μM (control; open symbols) or 125 μM Ca^2+ (Ca^2+; closed symbols). […] [^3H]Thymidine incorporation into DNA was then determined. […] Luciferase activity was then measured using a Dual Luciferase kit as directed by the manufacturer. […] The blots were quantified using the Kodak molecular imaging software. […]
PG was also examined for its ability to stimulate a marker of keratinocyte differentiation. Keratinocytes were treated with or without PG liposomes in 25 uM Ca^2+ (control) or 125 uM Ca^2+-containing medium for 24 hours and cell lysates were analyzed for involucrin protein levels (normalized to actin as a loading control) (FIG. 15E).

Q: With [Ca+2] [calcium] as the compound, how does the “radiolabeled PG formation relative to control cells” value ([1]; 24 hours pretreatment (250 nM 1,25-dihydroxyvitamin D3 or 125 μM calcium), then [3H]glycerol 30 minutes) read?
A: induced an increase in the subsequent production of PG

Q: And the “calcium concentration giving maximal stimulation of radiolabeled PG formation” value ([1]; range 25 μM (control) to 1 mM, 24 hours, biphasic dose dependence)?
A: 125 µM

Q: And the “inhibition of keratin 5 promoter activity” value (keratin 5 promoter)?
A: 64%

Q: What about the “inhibition of keratin 10 expression (promoter activity)” value (keratin 10 promoter) of the same compound?
A: 22%

Q: What about the “involucrin protein levels, each agent alone” value (involucrin) of the same compound?
A: not significant effect
